Measured values reported in US7056929B2, “Benzo[b]pyrano[3,2-h]acridin-7-one compounds” (Les Laboratoires Servier, priority 2001, dated 2006).
Like-named read-outs stand apart in the source and are kept apart here. Marks after values point to notes of the source that are not given here.

Key:
Murine leukaemia L1210 [1] = experiment: In vitro cytotoxicity on murine leukaemia L1210 (Microculture Tetrazolium Assay)
Description: (§2) Murine leukaemia L1210 was used in vitro. The cells are cultured in RPMI 1640 complete culture medium containing 10% foetal calf serum, 2 mM glutamine, 50 units/ml of penicillin, 50 μg/ml of streptomycin and 10 mM Hepes, pH: 7.4. The cells are distributed on microplates and exposed to the cytotoxic compounds for 4 doubling periods, or 48 hours. The number of viable cells is then quantified by means of a colorimetric assay, the Microculture Tetrazolium Assay (J. Carmichael et al., Cancer Res., 47, 936–942, (1987)). The results are expressed as IC50, the concentration of cytotoxic agent which inhibits the proliferation of the treated cells by 50%.

[2] = system: Human KB-3-1 (bucal epidermoïde carcinoma) cell; experiment: In vitro cytotoxicity on human KB-3-1 cells (procedure of Example 27)
Description: as §2

[3] = system: C38 adenocarcinoma of the colon; experiment: Anti-tumour activity with respect to C38 adenocarcinoma of the colon in mice; assay type: in vivo; conditions: for T/C (tumor growth), C38: Table 3; for anti-tumour activity (% T/C): C38 s.c. in B6D2F1 mice, tumour volume
Description: Tumour fragments of C38 adenocarcinoma of the colon weighing approximately 30 mg were implanted under the skin of B6D2F1 mice (Iffa Credo, France) on day 0.
After growth of the tumour, the mice were divided into control (18 animals) and treated (6 or 7 animals) groups, which were homogeneous with respect to tumour size. The products were administered by the i.v. route once per week for 3 weeks (on days 10, 17 and 24), at their Maximum Tolerated Dose (MTD), MTD/2 and MTD/4. The tumours were measured twice a week and the tumour volumes were calculated according to the following formula: volume (mm^3)=length (mm)×breadth (mm^2)/2. The anti-tumour activity is expressed as % T/C:
[formula] V0 and Vt being the initial volume of the tumour and its volume at measurement time t, respectively.
The optimum dose is the dose giving the lowest T/C value without toxicity (early death or weight loss greater than 20%).
The procedure used in the anti-tumour activity with respect to C38 adenocarcinoma is the same as the procedure described in the present application at Example 28.

P388 (murine leukaemia) = experiment: Anti-tumour activity with respect to P388 leukaemia in mice; assay type: in vivo; conditions: P388 i.p. in B6D2F1 mice, products i.v. on day 1
Description: Line P388 (murine leukaemia) was supplied by the National Cancer Institute (Frederick, USA). The tumour cells (10^6 cells) were inoculated on day 0 into the peritoneal cavity of female B6D2F1 mice (Iffa Credo, France). Six mice weighing from 18 to 20 g were used in each test group. The products were administered by the intravenous route on day 1. The anti-tumour activity is expressed as % T/C: […]

[4] = system: human IGROV1 ovarian carcinoma; experiment: Anti-tumour activity on IGROV1 ovarian carcinoma in nude mice; assay type: in vivo; conditions: IGROV1 i.p. in nude mice, 12.5 mg/kg i.v. days 4 and 14, optimal dose; median survival time
Description: (§1) The anti-tumour activity of the compounds against the human A549 non-small cell lung carcinoma was evaluated essentially as described (Kraus-Berthier, L., Jan, M., Guilbaud, N., Naze, M., Pierré, A., and Atassi, G. Histology and sensitivity to anticancer drugs of two human non-small cell lung carcinomas implanted in the pleural cavity of nude mice. Clinical Cancer Res., 6, 297–304, 2000). Briefly, 10^6 A549 cells were implanted through the chest wall into the left pleural space of nude mice in a volume of 100 μl. Compounds were administered i.v. at three doses on days 14 and 24 after tumor graft. Animal mortality was checked daily and the anti-tumour activity was expressed as T/C %=(median survival time of treated group/median survival time of control group)×100. Results given in table 3 are the highest T/C values obtained at the maximum non-toxic dose, i.e. the optimal dose.
The anti-tumour activity of the compounds against the human IGROV1 ovarian carcinoma was evaluated essentially as described (Burbridge, M. F., Kraus-Berthier, L., Naze, M., Pierré, A., Atassi, G. and Guilbaud, N. Biological and pharmacological characterization of three models of human ovarian carcinoma established in nude mice: use of the CA125 tumor marker to predict antitumor activity. Int. J. Oncol., 15, 1155–1162, 1999). […] The anti-tumour activity was evaluated as described above for A549 lung carcinoma.

[5] = system: human A549 non-small cell lung carcinoma; experiment: Anti-tumour activity on A549 lung carcinoma in nude mice; assay type: in vivo; conditions: A549 in pleural space of nude mice, median survival time
Description: as §1

[6] = system: Human KB-3-1 (bucal epidermoïde carcinoma) cell
Description: as §2

Murine leukaemia L1210 [7] = system: Murine leukaemia L1210
Description: as §2

[8] = Mus musculus, L1210, read-out: IC50 (μM), Cytotoxicity on Murine L 1210 cells
[9] = Homo sapiens, KB 3-1, read-out: IC50 (μM), Cytotoxicity on Human KB-3-1 (bucal epidermoïde carcinoma) cell

CCN(CC)C(=O)O[C@@H]1c2c(cc(OC)c3c(=O)c4cc5ccccc5cc4n(C)c23)OC(C)(C)[C@@H]1OC(=O)N(CC)CC (racemic) [Example 23, (±)-cis-1-{[(Diethylamino)carbonyl]oxy}-6-methoxy-3,3,14-trimethyl-7-oxo-2,3,7,14-tetrahydro-1H-benzo[b]pyrano[3,2-h]acridin-2-yl diethylcarbamate]
IC50 (Murine leukaemia L1210 [1]; [8]): 0.9 µM

Cn1c2cc3ccccc3cc2c(=O)c2c(OCCO)cc3c(c21)C=CC(C)(C)O3 [Example 1, 6(2-Hydroxyethoxy)-3,3,14-trimethyl-3,14-dihydro-7H-benzo[b]-pyrano[3,2-h]acridin-7-one]
IC50 [2, 9]: 0.5 µM

COc1cc2c(c3c1c(=O)c1cc4ccccc4cc1n3C)[C@H](OC(=O)N(C)C)[C@H](OC(=O)N(C)C)C(C)(C)O2 [Example 11, (1S,2S)-1-{[(Dimethylamino)carbonyl]oxy}-6-methoxy-3,3,14-trimethyl-7-oxo-2,3,7,14-tetrahydro-1H-benzo[b]pyrano[3,2-h]acridin-2-yl dimethylcarbamate]
IC50 (Murine leukaemia L1210 [1]; Mus musculus, L1210, 48 h): 0.78 µM | IC50 (Murine leukaemia L1210 [1]; [8]): 0.8 µM | T/C (tumor growth), C38 ([3]; C38, dose 25 mg/kg i.v.): 41%^a | anti-tumour activity (% T/C) ([3]; i.v. days 10, 17 and 24, optimum dose of 25 mg/kg): 41% | IC50 [2, 9]: 0.4 µM

COc1cc2c(c3c1c(=O)c1ccccc1n3C)C=CC(C)(C)O2 [acronycine, reference compound]
anti-tumour activity (% T/C) ([3]; i.v. days 10, 17 and 24, optimum dose of 100 mg/kg): 27% | T/C (P388 (murine leukaemia)): only marginally active

(±)-cis-1,2-Dipentenoyloxy-6-methoxy-3,3,14-trimethyl-2,3,7,14-tetrahydro-1H-benzo[b]pyrano[3,2-h]acridin-7-one [Example 7]
IC50 (Murine leukaemia L1210 [1]; L1210 cells, exposure 4 doubling periods or 48 hours): 0.52 µM | IC50 (Murine leukaemia L1210 [1]; read-out: IC50 (μM), Cytotoxicity on Murine L 1210 cells, L1210 cells, procedure of Example 27, Table 1): 0.5 µM | T/C (tumor growth), C38 ([3]; C38, dose 25 mg/kg i.v.): 12%^a | anti-tumour activity (% T/C) ([3]; i.v. days 10, 17 and 24, optimum dose of 12.5 mg/kg): 30% | T/C (survival), IGROV1 [4]: 148%^b | T/C (survival), A549 ([5]; 12.5 mg/kg i.v. days 14 and 24, optimal dose): 218%^b | IC50 ([2]; read-out: IC50 (μM), Cytotoxicity on Human KB-3-1 (bucal epidermoïde carcinoma) cell, KB-3-1 cells, procedure of Example 27, Table 2): 0.14 µM

(±)-cis-1-Hydroxy-6-methoxy-2-pentenoyloxy-3,3,14-trimethyl-2,3,7,14-tetrahydro-1H-benzo[b]pyrano[3,2-h]acridin-7-one [Example 8]
IC50 [6]: 0.1 µM | T/C (tumor growth), C38 ([3]; C38, dose 50 mg/kg i.v.): 15%^a | IC50 (Murine leukaemia L1210 [7]): 0.9 µM | T/C (survival), A549 ([5]; 25 mg/kg i.v. days 14 and 24, optimal dose): 340%^b
